Results taken from ChEMBL document CHEMBL3217540, “New 3-amidinophenylalanine-derived inhibitors of matriptase” (Medchemcomm, 2012).

Assays:
[1] = molecular target: T1, Suppressor of tumorigenicity 14 protein (Homo sapiens, UniProt Q9Y5Y6); assay: Inhibition of matriptase (unknown origin) using MeSO2-D-Cha-Gly-Arg-pNA as substrate
T1 sequence (Q9Y5Y6 whole entry): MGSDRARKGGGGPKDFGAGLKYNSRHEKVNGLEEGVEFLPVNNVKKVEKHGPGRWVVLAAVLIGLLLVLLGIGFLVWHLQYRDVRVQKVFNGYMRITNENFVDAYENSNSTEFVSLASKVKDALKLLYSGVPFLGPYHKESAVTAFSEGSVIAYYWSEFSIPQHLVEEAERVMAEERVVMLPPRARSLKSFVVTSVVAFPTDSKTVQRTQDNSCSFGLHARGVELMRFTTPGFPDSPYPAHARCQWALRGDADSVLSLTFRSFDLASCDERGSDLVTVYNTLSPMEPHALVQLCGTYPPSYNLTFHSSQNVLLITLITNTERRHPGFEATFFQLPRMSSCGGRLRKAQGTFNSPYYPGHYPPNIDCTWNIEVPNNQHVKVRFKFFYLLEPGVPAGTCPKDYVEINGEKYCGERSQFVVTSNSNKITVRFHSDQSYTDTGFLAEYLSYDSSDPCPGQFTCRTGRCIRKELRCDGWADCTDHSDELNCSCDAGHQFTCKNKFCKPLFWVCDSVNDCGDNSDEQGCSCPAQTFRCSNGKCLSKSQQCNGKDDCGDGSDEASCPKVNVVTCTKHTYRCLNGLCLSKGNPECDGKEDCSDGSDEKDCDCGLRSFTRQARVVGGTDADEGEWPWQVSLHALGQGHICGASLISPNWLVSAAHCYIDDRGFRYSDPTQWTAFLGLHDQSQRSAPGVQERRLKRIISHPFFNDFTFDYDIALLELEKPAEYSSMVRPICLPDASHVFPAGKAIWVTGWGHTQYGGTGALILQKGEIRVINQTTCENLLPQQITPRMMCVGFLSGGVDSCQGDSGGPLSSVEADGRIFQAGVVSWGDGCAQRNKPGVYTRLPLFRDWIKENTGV

Coagulation factor X = Coagulation factor X (Homo sapiens, UniProt P00742); assay: Inhibition of human factor 10a using CH3OCO-D-Cha-Gly-Arg-pNA as substrate
Prothrombin = Prothrombin (Bos taurus, UniProt P00735); assay: Inhibition of bovine thrombin using MeSO2-D-Cha-Gly-Arg-pNA as substrate
[2] = molecular target: Urokinase-type plasminogen activator (Homo sapiens, UniProt P00749); assay: Inhibition of human uPA using Bzbeta-Ala-Gly-Arg-pNA as substrate
[3] = molecular target: T2, Transmembrane protease serine 6 (Homo sapiens, UniProt Q8IU80); assay: Inhibition of matriptase-2 (unknown origin) expressed in HEK293 cells using ln-Ala-Arg-a-Arg-para-nitroanilide as substrate by UV-vis spectrophotometry; type: cell-based
T2 sequence (Q8IU80 whole entry): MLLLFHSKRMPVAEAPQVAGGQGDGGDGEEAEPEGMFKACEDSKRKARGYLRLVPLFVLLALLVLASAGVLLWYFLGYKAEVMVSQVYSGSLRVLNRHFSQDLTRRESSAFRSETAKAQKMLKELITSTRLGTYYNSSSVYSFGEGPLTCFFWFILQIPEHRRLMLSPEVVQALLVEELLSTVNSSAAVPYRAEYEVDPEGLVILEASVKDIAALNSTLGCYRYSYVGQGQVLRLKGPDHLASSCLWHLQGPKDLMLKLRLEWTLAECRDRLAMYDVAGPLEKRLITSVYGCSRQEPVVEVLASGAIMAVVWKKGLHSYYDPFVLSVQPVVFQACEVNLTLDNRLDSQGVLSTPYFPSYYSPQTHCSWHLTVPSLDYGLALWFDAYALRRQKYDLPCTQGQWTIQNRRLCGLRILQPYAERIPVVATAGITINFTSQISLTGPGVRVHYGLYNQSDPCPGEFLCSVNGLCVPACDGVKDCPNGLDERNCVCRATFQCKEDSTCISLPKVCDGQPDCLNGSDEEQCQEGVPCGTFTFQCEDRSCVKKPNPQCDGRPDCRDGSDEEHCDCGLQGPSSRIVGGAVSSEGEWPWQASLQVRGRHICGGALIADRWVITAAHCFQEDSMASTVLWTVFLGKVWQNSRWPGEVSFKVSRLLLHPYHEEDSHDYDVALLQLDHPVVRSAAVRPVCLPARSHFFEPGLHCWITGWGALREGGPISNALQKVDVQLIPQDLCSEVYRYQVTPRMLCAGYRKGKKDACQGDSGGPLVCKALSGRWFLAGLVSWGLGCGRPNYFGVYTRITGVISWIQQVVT

[4] = Inhibition of recombinant human airway trypsin-like protease by fluorescence assay
[5] = Selectivity ratio of Ki for bovine thrombin to Ki for matriptase (unknown origin)

Coagulation factor X, sequence (P00742 41-179 limits assumed): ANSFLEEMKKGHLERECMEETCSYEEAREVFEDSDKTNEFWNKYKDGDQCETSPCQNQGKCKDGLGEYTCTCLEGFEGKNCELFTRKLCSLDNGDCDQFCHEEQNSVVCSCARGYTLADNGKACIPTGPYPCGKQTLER
Coagulation factor X, sequence (P00742 235-488 limits assumed): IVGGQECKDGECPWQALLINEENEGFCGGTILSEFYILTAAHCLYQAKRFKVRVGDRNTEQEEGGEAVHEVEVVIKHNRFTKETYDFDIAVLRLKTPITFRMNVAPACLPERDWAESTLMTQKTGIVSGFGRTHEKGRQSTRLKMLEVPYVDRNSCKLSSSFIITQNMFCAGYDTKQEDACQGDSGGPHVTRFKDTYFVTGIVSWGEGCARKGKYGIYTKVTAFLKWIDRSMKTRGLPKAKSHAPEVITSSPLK

| Compound | Ki [1] | Ki (Coagulation factor X) | Ki (Prothrombin) | Ki [2] | Ki [3] | Ki [4] | Ratio Ki [5] |
| --- | --- | --- | --- | --- | --- | --- | --- |
| COc1ccc(-c2cccc(S(=O)(=O)N[C@@H](Cc3cccc(C(=N)N)c3)C(=O)N3CCC(NC(=O)NC4CCCCC4)CC3)c2)c(OC)c1 | 2.7 nM | 11 nM | 1230 nM | 18500 nM | 1420 nM | 830 nM | > 500 |
| N=C(N)c1cccc(C[C@H](NS(=O)(=O)c2cccc(-c3cccc(Cl)c3Cl)c2)C(=O)N2CCC(CCN)CC2)c1 | 11 nM |  | 20 nM |  | 210 nM |  |  |
| CCOc1ccc(-c2cccc(S(=O)(=O)N[C@@H](Cc3cccc(C(=N)N)c3)C(=O)N3CCC(CCN)CC3)c2)c(Cl)c1 | 13 nM | 170 nM | 400 nM |  | 400 nM |  |  |
| N=C(N)c1cccc(C[C@H](NS(=O)(=O)c2cccc(-c3ccc(Cl)c(Cl)c3)c2)C(=O)N2CCC(CCN)CC2)c1 | 18 nM |  | 30 nM |  | 580 nM |  |  |
| CNC(=O)NCCC1CCN(C(=O)[C@H](Cc2cccc(C(=N)N)c2)NS(=O)(=O)c2cccc(-c3ccc(OC)cc3OC)c2)CC1 | 1.8 nM | 51 nM | 0.8 nM | 4400 nM | 180 nM | 110 nM |  |
| N=C(N)c1cccc(C[C@H](NS(=O)(=O)c2cccc(-c3cccc(F)c3)c2)C(=O)N2CCC(CCN)CC2)c1 | 52 nM | 3200 nM | 40 nM |  | 3200 nM |  |  |
| N=C(N)c1cccc(C[C@H](NS(=O)(=O)c2cccc(-c3ccc(F)cc3)c2)C(=O)N2CCC(CCN)CC2)c1 | 33 nM | 1120 nM | 5 nM |  | 3200 nM |  |  |
| CNC(=O)CCCC1CCN(C(=O)[C@H](Cc2cccc(C(=N)N)c2)NS(=O)(=O)c2cccc(-c3ccc(Cl)c(Cl)c3)c2)CC1 | 74 nM | 230 nM | 3 nM |  | 1600 nM |  |  |
| CNC(=O)CCCC1CCN(C(=O)[C@H](Cc2cccc(C(=N)N)c2)NS(=O)(=O)c2cccc(-c3ccc(OC)cc3OC)c2)CC1 | 8 nM | 60 nM | 1 nM |  | 770 nM |  |  |
| N=C(N)c1cccc(C[C@H](NS(=O)(=O)c2cccc(-c3ccccc3F)c2)C(=O)N2CCC(CCN)CC2)c1 | 23 nM | 810 nM | 40 nM |  | 2100 nM |  |  |
| N=C(N)c1cccc(C[C@H](NS(=O)(=O)c2cccc(-c3ccc(Cl)cc3Cl)c2)C(=O)N2CCC(CCN)CC2)c1 | 2 nM | 50 nM | 20 nM |  | 110 nM |  |  |
| N=C(N)c1cccc(C[C@H](NS(=O)(=O)c2cccc(-c3ccc(Cl)cc3Cl)c2)C(=O)N2CCC(NC(=O)NC3CCCCC3)CC2)c1 | 5.1 nM | 20 nM | 630 nM | 18100 nM | 940 nM | 2700 nM | > 500 |
| CCOc1ccc(-c2cccc(S(=O)(=O)N[C@@H](Cc3cccc(C(=N)N)c3)C(=O)N3CCC(CCCC(=O)NC)CC3)c2)c(Cl)c1 | 49 nM | 180 nM | 30 nM |  | 1300 nM |  |  |

Further lines, results first:

| Ki [1] | Ki (Coagulation factor X) | Ki (Prothrombin) | Ki [2] | Ki [3] | Ki [4] | Ratio Ki [5] | Compound |
| --- | --- | --- | --- | --- | --- | --- | --- |
| 39 nM | 8890 nM | 15300 nM |  | 2400 nM |  |  | CCNC(=O)NC1CCN(C(=O)[C@H](Cc2cccc(C(=N)N)c2)NS(=O)(=O)c2cccc(NC(=O)CCN)c2)CC1 |
| 0.9 nM | 29 nM | 0.2 nM | 3400 nM | 73 nM | 170 nM |  | CNC(=O)NCCC1CCN(C(=O)[C@H](Cc2cccc(C(=N)N)c2)NS(=O)(=O)c2cccc(-c3ccc(Cl)cc3Cl)c2)CC1 |
| 7 nM | 7070 nM | 40 nM |  | 1200 nM |  |  | CNC(=O)NCCC1CCN(C(=O)[C@H](Cc2cccc(C(=N)N)c2)NS(=O)(=O)c2cccc(NC(=O)CCN)c2)CC1 |
| 130 nM | 3050 nM | 6 nM |  | 10000 nM |  |  | CNC(=O)CCCC1CCN(C(=O)[C@H](Cc2cccc(C(=N)N)c2)NS(=O)(=O)c2cccc(-c3cccc(F)c3)c2)CC1 |
| 14 nM | 13900 nM | 140 nM |  | 3300 nM |  |  | N=C(N)c1cccc(C[C@H](NS(=O)(=O)c2cccc(NC(=O)CCN)c2)C(=O)N2CCC(CCNC(N)=O)CC2)c1 |
| 12 nM | 4790 nM | 130 nM |  | 460 nM |  |  | CCNC(=O)NCCC1CCN(C(=O)[C@H](Cc2cccc(C(=N)N)c2)NS(=O)(=O)c2cccc(NC(=O)CCN)c2)CC1 |
| 11 nM | 2610 nM | 440 nM |  | 1900 nM |  |  | N=C(N)c1cccc(C[C@H](NS(=O)(=O)c2cccc(NC(=O)CCN)c2)C(=O)N2CCC(CCNC(=O)Nc3ccccc3)CC2)c1 |
| 56 nM | 14100 nM | 10800 nM |  | 1300 nM |  |  | CNC(=O)NC1CCN(C(=O)[C@H](Cc2cccc(C(=N)N)c2)NS(=O)(=O)c2cccc(NC(=O)CCN)c2)CC1 |
| 120 nM | 1100 nM | 2 nM |  | 3000 nM |  |  | CNC(=O)CCCC1CCN(C(=O)[C@H](Cc2cccc(C(=N)N)c2)NS(=O)(=O)c2cccc(-c3ccccc3F)c2)CC1 |
| 120 nM | 550 nM | 1 nM |  | 4400 nM |  |  | CNC(=O)CCCC1CCN(C(=O)[C@H](Cc2cccc(C(=N)N)c2)NS(=O)(=O)c2cccc(-c3ccc(F)cc3)c2)CC1 |
| 35 nM | 16900 nM | 9700 nM |  | 3900 nM |  |  | N=C(N)c1cccc(C[C@H](NS(=O)(=O)c2cccc(NC(=O)CCN)c2)C(=O)N2CCC(NC(N)=O)CC2)c1 |
| 17 nM | 5520 nM | 230 nM |  | 1300 nM |  |  | N=C(N)c1cccc(C[C@H](NS(=O)(=O)c2cccc(NC(=O)CCN)c2)C(=O)N2CCC(CCNC(=O)NCc3ccccc3)CC2)c1 |
| 8 nM | 1200 nM | 35900 nM |  | 790 nM |  |  | N=C(N)c1cccc(C[C@H](NS(=O)(=O)c2cccc(NC(=O)CCN)c2)C(=O)N2CCC(NC(=O)NC3CCCCC3)CC2)c1 |
| 14 nM | 3410 nM | 9250 nM |  | 1300 nM |  |  | N=C(N)c1cccc(C[C@H](NS(=O)(=O)c2cccc(NC(=O)CCN)c2)C(=O)N2CCC(NC(=O)Nc3ccccc3)CC2)c1 |
| 51 nM | 260 nM | 4 nM |  | 750 nM |  |  | CNC(=O)CCCC1CCN(C(=O)[C@H](Cc2cccc(C(=N)N)c2)NS(=O)(=O)c2cccc(-c3cccc(Cl)c3Cl)c2)CC1 |
| 13 nM | 32 nM | 1 nM |  | 350 nM |  |  | CNC(=O)CCCC1CCN(C(=O)[C@H](Cc2cccc(C(=N)N)c2)NS(=O)(=O)c2cccc(-c3ccc(Cl)cc3Cl)c2)CC1 |
| 26 nM | 2450 nM | 7840 nM |  | 1100 nM |  |  | N=C(N)c1cccc(C[C@H](NS(=O)(=O)c2cccc(NC(=O)CCN)c2)C(=O)N2CCC(NC(=O)NCc3ccccc3)CC2)c1 |
| 23 nM | 6450 nM | 470 nM |  | 1800 nM |  |  | N=C(N)c1cccc(C[C@H](NS(=O)(=O)c2cccc(NC(=O)CCN)c2)C(=O)N2CCC(CCNC(=O)NC3CCCCC3)CC2)c1 |
